Laboratory results reported in PMC11156613 (Journal of Advanced Research, 2023).
Like-named read-outs stand apart in the source and are kept apart here.

What was measured:
Recombinant human HDAC1 = Recombinant human HDAC1 (Homo sapiens, UniProt Q13547); experiment: In vitro HDAC enzymatic assay, HDAC1; format: biochemical
Recombinant human HDAC2 = Recombinant human HDAC2 (Homo sapiens, UniProt Q92769); experiment: In vitro HDAC enzymatic assay, HDAC2; format: biochemical
Recombinant human HDAC6 = biological target: T1, Recombinant human HDAC6 (Homo sapiens, UniProt Q9UBN7); experiment: In vitro HDAC enzymatic assay, HDAC6; format: biochemical
T1 sequence (Q9UBN7 1-1215): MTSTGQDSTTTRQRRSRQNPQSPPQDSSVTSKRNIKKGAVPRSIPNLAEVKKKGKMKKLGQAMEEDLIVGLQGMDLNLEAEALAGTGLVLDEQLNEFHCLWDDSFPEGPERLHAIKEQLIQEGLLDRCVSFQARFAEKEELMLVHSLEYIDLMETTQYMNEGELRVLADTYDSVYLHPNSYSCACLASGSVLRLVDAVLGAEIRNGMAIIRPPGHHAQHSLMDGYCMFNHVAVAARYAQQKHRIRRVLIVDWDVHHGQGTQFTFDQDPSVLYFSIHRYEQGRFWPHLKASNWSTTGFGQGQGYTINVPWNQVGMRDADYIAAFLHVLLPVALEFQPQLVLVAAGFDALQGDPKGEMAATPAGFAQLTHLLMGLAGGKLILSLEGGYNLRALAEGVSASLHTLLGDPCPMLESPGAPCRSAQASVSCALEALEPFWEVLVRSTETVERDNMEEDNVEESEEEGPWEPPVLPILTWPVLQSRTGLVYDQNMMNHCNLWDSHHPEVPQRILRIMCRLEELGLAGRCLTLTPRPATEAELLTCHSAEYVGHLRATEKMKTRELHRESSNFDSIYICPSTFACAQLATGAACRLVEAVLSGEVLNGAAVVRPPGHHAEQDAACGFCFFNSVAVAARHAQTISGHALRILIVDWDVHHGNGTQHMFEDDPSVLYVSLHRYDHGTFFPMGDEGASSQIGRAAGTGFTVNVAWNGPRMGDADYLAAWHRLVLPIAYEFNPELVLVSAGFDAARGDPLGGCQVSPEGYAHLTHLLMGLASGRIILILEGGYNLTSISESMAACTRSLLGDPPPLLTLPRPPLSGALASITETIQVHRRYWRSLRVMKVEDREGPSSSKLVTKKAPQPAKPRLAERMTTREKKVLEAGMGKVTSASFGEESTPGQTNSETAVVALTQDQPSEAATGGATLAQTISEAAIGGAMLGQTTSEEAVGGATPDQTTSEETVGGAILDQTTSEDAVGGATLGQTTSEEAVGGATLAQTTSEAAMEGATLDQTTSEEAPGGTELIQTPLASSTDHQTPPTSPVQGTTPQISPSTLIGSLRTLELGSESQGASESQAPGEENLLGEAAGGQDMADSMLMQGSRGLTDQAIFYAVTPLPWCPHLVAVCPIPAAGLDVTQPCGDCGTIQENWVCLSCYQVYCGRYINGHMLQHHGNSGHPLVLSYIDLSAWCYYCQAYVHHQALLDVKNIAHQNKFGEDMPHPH

recombinant human HDAC8 = biological target: T2, recombinant human HDAC8 (Homo sapiens, UniProt Q9BY41); experiment: In vitro HDAC8 homogenous fluorescence assay; format: biochemical
T2 sequence (Q9BY41 1-377): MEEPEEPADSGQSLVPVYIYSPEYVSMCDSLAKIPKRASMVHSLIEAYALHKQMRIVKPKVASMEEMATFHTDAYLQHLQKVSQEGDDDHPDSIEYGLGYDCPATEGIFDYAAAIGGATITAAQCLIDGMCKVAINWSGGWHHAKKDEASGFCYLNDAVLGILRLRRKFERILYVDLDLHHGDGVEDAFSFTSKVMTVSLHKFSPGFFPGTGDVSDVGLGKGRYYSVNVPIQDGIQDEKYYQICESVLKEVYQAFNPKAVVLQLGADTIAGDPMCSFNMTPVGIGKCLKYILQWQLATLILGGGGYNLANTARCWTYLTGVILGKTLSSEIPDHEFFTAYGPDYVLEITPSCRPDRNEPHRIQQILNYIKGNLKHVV

Recombinant human HDAC11 = biological target: T3, Recombinant human HDAC11 (Homo sapiens, UniProt Q96DB2); experiment: In vitro HDAC11 inhibition assay; format: biochemical
T3 sequence (Q96DB2 1-347): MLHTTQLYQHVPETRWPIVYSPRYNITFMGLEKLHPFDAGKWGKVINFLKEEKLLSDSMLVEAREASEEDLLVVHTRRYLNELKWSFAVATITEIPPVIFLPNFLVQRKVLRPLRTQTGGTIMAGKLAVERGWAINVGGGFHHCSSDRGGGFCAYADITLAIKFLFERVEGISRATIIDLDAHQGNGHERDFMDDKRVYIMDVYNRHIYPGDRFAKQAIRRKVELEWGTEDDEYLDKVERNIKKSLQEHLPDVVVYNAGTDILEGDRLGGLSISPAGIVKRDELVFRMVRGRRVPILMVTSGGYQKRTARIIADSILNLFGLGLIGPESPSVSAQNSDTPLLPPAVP

HEL cells = experiment: Apoptosis induction, annexin-V/PI flow cytometry; format: cell-based, human; details: 24 h
[1] = biological target: Recombinant human HDAC3/NCOR1 (Homo sapiens, UniProt O15379); experiment: In vitro HDAC enzymatic assay, HDAC3
Recombinant human HDAC3/NCOR1, sequence (O15379 whole entry): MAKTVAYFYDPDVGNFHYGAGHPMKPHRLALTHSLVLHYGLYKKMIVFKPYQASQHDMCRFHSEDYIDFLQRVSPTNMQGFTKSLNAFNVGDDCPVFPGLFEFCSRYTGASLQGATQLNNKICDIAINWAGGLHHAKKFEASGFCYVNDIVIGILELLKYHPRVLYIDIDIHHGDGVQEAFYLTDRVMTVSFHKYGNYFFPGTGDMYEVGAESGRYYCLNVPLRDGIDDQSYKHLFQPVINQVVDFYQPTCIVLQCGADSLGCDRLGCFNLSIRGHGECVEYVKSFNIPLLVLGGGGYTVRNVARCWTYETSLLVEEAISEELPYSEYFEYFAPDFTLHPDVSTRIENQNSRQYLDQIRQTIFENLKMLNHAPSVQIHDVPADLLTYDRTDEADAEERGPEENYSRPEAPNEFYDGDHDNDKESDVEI
Recombinant human HDAC3/NCOR1, sequence (O75376 395-489 partner limits assumed): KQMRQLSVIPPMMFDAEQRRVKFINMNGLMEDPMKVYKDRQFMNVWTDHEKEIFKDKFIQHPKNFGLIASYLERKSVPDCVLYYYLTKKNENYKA

Recombinant human HDAC1, sequence (Q13547 whole entry): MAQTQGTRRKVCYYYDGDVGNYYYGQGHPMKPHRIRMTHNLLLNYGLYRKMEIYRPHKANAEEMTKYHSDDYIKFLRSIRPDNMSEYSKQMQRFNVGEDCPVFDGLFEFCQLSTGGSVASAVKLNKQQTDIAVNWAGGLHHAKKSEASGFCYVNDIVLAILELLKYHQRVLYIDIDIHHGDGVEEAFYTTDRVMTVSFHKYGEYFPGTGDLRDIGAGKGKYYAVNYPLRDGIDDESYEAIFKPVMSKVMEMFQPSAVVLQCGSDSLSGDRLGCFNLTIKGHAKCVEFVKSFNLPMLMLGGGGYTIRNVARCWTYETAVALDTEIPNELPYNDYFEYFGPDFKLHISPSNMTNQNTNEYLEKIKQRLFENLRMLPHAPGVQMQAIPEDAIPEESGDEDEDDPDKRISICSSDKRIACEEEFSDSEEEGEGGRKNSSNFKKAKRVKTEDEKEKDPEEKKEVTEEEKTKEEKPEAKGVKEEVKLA
Recombinant human HDAC2, sequence (Q92769 whole entry): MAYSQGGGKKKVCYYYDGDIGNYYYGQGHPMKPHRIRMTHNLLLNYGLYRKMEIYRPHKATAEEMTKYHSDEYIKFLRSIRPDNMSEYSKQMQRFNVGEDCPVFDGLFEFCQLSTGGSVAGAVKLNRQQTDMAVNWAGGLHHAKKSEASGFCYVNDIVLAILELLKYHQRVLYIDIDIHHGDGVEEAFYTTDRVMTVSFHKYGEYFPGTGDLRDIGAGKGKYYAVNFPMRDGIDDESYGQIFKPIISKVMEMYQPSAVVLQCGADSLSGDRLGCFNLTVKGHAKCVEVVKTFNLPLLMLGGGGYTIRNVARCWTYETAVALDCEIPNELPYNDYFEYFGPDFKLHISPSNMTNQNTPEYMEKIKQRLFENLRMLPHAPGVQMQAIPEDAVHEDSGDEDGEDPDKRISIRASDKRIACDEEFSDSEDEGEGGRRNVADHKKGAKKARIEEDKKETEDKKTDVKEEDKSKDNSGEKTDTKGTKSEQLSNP

IC50 (Recombinant human HDAC1; read-out: HDAC1 IC50) [µM] | IC50 (Recombinant human HDAC1; read-out: HDAC1 IC50, Ac-RHKK(Acetyl)-AMC substrate, 37 °C) [µM] | IC50 (Recombinant human HDAC2; read-out: HDAC2 IC50, Ac-RHKK(Acetyl)-AMC substrate, 37 °C) [µM] | IC50 (Recombinant human HDAC6; read-out: HDAC6 IC50, Abz-SRGGK(thio-TFA)FFRR-NH2 substrate) [µM] | IC50 (recombinant human HDAC8; read-out: HDAC8 IC50, ZMAL 10.5 μM, 90 min, 37 °C) [µM] | IC50 (Recombinant human HDAC11; read-out: HDAC11 IC50) [µM] | IC50 ([1]; read-out: HDAC3 IC50, Ac-RHKK(Acetyl)-AMC substrate, 37 °C) [µM] | IC50 (Recombinant human HDAC1; HDAC1 IC50, Ac-RHKK(Acetyl)-AMC substrate, 37 °C) [µM] | IC50 (Recombinant human HDAC1; HDAC1 IC50, as stated in text) [µM] | IC50 (Recombinant human HDAC2) [µM] | IC50 (Recombinant human HDAC6) [µM] | fold more potent inhibitor of HDAC6 than KH9 and KH16 (Recombinant human HDAC6; from Table 1 IC50 values) | IC50 (recombinant human HDAC8) [µM] | IC50 (Recombinant human HDAC11) [µM] | IC50 [1] [µM] | SMILES | concentration at which apoptosis induction starts (HEL cells)
0.009 | 0.0089 ± 0.0005 | 0.022 ± 0.001 | 0.14 ± 0.01 | 0.11 ± 0.01 | 1.5 ± 0.1 | 0.019 ± 0.001 |  |  |  |  |  |  |  |  | COc1ccc(/C=C/CN2CCN(c3ncc(C(=O)NO)cn3)CC2)cc1.Cl [KH9, (E)-N-Hydroxy-2-(4-(3-(4-methoxyphenyl)allyl)piperazin-1-yl)pyrimidine-5-carboxamide Hydrchloride] | approximately 50 nM
 |  |  |  |  |  |  | 0.0094 ± 0.0005 | 0.009 | 0.026 ± 0.001 | 0.025 ± 0.001 | at least 10 fold | 0.049 ± 0.002 | 1 ± 0.1 | 0.02 ± 0.001 | Cl.Cn1cc(CN2CCN(c3ncc(C(=O)NO)cn3)CC2)c2ccccc21 [KH29, N-hydroxy-2-(4-((1-methyl-1H-indol-3-yl)methyl)piperazin-1-yl)pyrimidine-5-carboxamide Hydrochloride] | 55 nM
